In ChEMBL document CHEMBL1201862, “PubChem BioAssay data set” (2004):
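Protocol summary: plate cells (96-well), add compound at 5 concentrations, incubate 48 h, interpolate endpoints linearly. GI50 is the concentration that inhibits growth by half.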 Calls of active or inactive are those of the source. No stated cut-off is given here; in the data, active = GI50 up to about 1.1 µM and inactive = higher.

Legend:
Experiment in all cases: growth of human tumour cells (NCI), 48 h
HOP-92 = test system: HOP-92
XF498 = test system: XF498
LOX IMVI = test system: LOX IMVI
SF-268 = test system: SF-268
SK-MEL-5 = test system: SK-MEL-5
HCT-116 = test system: HCT-116
NCI/ADR-RES = test system: NCI/ADR-RES
RPMI-8226 = test system: RPMI-8226
A549 = test system: A549
UO-31 = test system: UO-31
HOP-62 = test system: HOP-62
SNB-75 = test system: SNB-75
Malme-3M = test system: Malme-3M
LXFL 529 = test system: LXFL 529
EKVX = test system: EKVX
OVCAR-3 = test system: OVCAR-3
DLD-1 = test system: DLD-1
TK-10 = test system: TK-10
SR = test system: SR
SW-620 = test system: SW-620
DMS-114 = test system: DMS-114
OVCAR-8 = test system: OVCAR-8
KM12 = test system: KM12
OVCAR-5 = test system: OVCAR-5
RXF 631 = test system: RXF 631
DMS-273 = test system: DMS-273
MOLT-4 = test system: MOLT-4
HCC 2998 = test system: HCC 2998
HCT-15 = test system: HCT-15
COLO 205 = test system: COLO 205
SF-539 = test system: SF-539
NCI-H460 = test system: NCI-H460
SN12C = test system: SN12C
HT-29 = test system: HT-29
CCRF-CEM = test system: CCRF-CEM
786-0 = test system: 786-0
RXF 393 = test system: RXF 393
NCI-H522 = test system: NCI-H522
K562 = test system: K562
KM-20L2 = test system: KM-20L2
MCF7 = test system: MCF7
NCI-H23 = test system: NCI-H23
IGROV-1 = test system: IGROV-1
HL-60 = test system: HL-60
UACC-257 = test system: UACC-257
U-251 = test system: U-251
M14 = test system: M14
CAKI-1 = test system: CAKI-1
SNB-19 = test system: SNB-19
OVCAR-4 = test system: OVCAR-4
A498 = test system: A498
SF-295 = test system: SF-295
M19-MEL = test system: M19-MEL
SK-MEL-2 = test system: SK-MEL-2
SK-MEL-28 = test system: SK-MEL-28
SK-OV-3 = test system: SK-OV-3
NCI-H226 = test system: NCI-H226
HOP-18 = test system: HOP-18
ACHN = test system: ACHN
SNB-78 = test system: SNB-78

Measured: GI50

O=NN(CCCl)C(=O)NC1CCC(CC2CCC(NC(=O)N(CCCl)N=O)CC2)CC1 (stereo not given)
39.9 µM: HCT-15
inactive: HOP-92 26.2 µM | XF498 13 µM | SK-MEL-5 32 µM | HCT-116 30.1 µM | NCI/ADR-RES 24.3 µM | RPMI-8226 1.96 µM | A549 33 µM | UO-31 46.1 µM | HOP-62 1.97 µM | SNB-75 16.6 µM | Malme-3M 32.3 µM | LXFL 529 36.1 µM | EKVX > 63.4 µM | OVCAR-3 27.8 µM | DLD-1 23.6 µM | TK-10 32.5 µM | SR 17.9 µM | SW-620 23.3 µM | DMS-114 24.4 µM | OVCAR-8 19.9 µM | KM12 > 73.3 µM | OVCAR-5 > 100 µM | RXF 631 41.7 µM | DMS-273 21.9 µM | MOLT-4 1.21 µM | HCC 2998 > 100 µM | COLO 205 > 48.1 µM | NCI-H460 1.74 µM | SN12C 28.4 µM | HT-29 > 100 µM | 786-0 13.2 µM | RXF 393 1.66 µM | NCI-H522 1.53 µM | K562 2.26 µM | KM-20L2 > 74.1 µM | NCI-H23 34.1 µM | IGROV-1 29.9 µM | HL-60 16.4 µM | UACC-257 3.29 µM | U-251 1.24 µM | M14 96.8 µM | CAKI-1 31.3 µM | SNB-19 12.2 µM | OVCAR-4 28.8 µM | A498 31.4 µM | M19-MEL 2.7 µM | SK-MEL-2 39.1 µM | SK-MEL-28 > 65.8 µM | SK-OV-3 2.23 µM | NCI-H226 79.3 µM | HOP-18 > 38 µM | ACHN 38.1 µM | SNB-78 29.5 µM
active: LOX IMVI 0.91 µM | SF-268 0.836 µM | SF-539 0.817 µM | CCRF-CEM 1.05 µM | MCF7 0.316 µM | SF-295 0.986 µM
